# Read-outs that look alike come from different tables or passages of the source.
# How the values were obtained:
# huAChE = huAChE (Homo sapiens, UniProt P22303); test: biochemical; assay type: biochemical; design: AChE from 5% rat cortex homogenate or human erythrocytes (Sigma Co.); purchased Sigma Co; host or cells: human erythrocytes; details: for SI: Selectivity Index = IC50 (BuChE)/IC50 (AChE), human enzymes; for IC50: from human erythrocytes, read-out: IC50 ± SD huAChE
# Procedure: (§1) The AChE and BuChE inhibitory activities of the synthesised compounds were evaluated using the Ellman assay with slight modification. AChE from 5% rat cortex homogenate or human erythrocytes (Sigma Co.). BuChE from rat serum or human serum (Sigma Co.).
# [1] = for ORAC: Trolox as standard
# Procedure: The skeleton compounds naringenin and apigenin were also evaluated for comparison purposes, and vitamin E analogue Trolox was used as a standard.
# The antioxidant potency of target compounds was tested using an oxygen radical absorbance capacity fluorescein (ORAC-FL) assay.
# ratBuChE = target: T1, ratBuChE (Rattus norvegicus, UniProt Q9JKC1); test: ratBuChE inhibition, modified Ellman's method; assay type: biochemical
# T1 construct: BuChE from rat serum or human serum (Sigma Co.); from tissue; host or cells: rat serum
# T1 sequence (Q9JKC1 24-597): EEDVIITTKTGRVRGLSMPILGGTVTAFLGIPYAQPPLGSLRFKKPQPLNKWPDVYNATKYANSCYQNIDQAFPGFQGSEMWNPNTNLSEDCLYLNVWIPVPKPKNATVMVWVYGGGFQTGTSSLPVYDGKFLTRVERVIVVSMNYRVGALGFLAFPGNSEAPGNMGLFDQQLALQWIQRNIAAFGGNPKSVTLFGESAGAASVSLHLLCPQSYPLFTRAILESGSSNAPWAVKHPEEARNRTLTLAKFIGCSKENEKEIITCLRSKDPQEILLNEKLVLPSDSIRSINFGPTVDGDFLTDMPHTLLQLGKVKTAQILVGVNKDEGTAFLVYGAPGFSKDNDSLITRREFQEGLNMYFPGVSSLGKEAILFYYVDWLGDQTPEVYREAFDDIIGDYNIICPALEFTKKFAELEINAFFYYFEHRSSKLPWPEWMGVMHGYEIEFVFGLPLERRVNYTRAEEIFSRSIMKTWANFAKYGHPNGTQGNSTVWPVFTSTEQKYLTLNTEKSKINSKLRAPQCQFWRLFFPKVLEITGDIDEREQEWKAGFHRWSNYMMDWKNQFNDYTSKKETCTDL
# Procedure: as §1
# huBuChE = target: T2, huBuChE (Homo sapiens, UniProt P06276); test: biochemical; assay type: biochemical; details: from human serum; read-out: IC50 ± SD huBuChE
# T2 construct: BuChE from rat serum or human serum (Sigma Co.); purchased Sigma Co; host or cells: human serum
# T2 sequence (P06276 29-602): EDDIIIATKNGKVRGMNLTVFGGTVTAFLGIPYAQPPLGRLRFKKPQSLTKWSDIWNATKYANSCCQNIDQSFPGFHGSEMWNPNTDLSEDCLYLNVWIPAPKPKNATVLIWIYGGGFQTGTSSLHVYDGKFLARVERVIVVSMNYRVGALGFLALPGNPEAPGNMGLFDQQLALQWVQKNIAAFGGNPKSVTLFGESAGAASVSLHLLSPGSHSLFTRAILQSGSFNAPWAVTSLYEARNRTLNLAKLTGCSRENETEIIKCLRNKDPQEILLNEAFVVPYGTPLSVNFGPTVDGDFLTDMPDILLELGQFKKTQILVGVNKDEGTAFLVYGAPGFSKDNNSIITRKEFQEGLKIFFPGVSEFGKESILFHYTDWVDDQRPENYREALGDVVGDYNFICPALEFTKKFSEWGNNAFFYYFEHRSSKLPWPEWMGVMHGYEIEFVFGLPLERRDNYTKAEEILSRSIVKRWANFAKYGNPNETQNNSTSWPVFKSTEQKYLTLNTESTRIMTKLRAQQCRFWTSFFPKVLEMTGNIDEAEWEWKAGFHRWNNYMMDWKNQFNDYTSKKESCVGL
# Procedure: as §1
# ratAChE = target: T3, ratAChE (Rattus norvegicus, UniProt P37136); test: biochemical; details: for SI: Selectivity Index = IC50 (BuChE)/IC50 (AChE), rat enzymes; for IC50: from 5% rat cortex homogenate
# T3 construct: AChE from 5% rat cortex homogenate or human erythrocytes (Sigma Co.); from tissue; host or cells: 5% rat cortex homogenate
# T3 sequence (P37136 32-614): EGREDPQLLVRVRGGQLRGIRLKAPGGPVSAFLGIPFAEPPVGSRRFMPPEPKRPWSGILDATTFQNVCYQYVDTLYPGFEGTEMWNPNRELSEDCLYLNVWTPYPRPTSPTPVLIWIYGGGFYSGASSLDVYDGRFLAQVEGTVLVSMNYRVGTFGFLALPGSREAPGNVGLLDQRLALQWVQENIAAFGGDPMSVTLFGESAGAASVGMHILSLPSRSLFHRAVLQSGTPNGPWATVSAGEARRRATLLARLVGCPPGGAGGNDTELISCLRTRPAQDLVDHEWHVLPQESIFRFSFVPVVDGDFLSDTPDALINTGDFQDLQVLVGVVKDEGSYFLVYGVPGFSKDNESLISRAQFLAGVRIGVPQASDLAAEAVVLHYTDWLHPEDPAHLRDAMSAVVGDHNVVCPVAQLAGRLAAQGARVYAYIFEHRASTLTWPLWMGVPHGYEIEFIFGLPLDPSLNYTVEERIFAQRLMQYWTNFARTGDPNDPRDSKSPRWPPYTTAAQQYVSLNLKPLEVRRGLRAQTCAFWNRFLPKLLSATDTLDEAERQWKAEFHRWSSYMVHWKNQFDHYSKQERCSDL
# Procedure: as §1
# in vitro = details: PAMPA
# Aβ1–42 [2] = target: T4, Aβ1–42 (Homo sapiens, UniProt P05067); test: Cu^2+-induced Aβ1–42 aggregation, ThT fluorescence; assay type: biochemical; details: tested compounds and Aβ1–42 25 μM
# T4 sequence (P05067 672-713): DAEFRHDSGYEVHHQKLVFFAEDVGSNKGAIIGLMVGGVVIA
# Procedure: Curcumin was also tested as a referenced compound.
# (§2) The Thioflavin T-based flurometric assay was employed to test the inhibition potency on self-induced/Cu^2+-induced Aβ1-42 aggregation.
# Aβ1–42 [3] = target: T4, Aβ1–42; test: Self-induced Aβ1–42 aggregation, Thioflavin T fluorescence; assay type: biochemical; details: tested compounds and Aβ1–42 25 μM
# Source text: as §2
# [4] = test system: scopolamine-induced mice memory impairment; test: Step-down passive avoidance task; details: 5 mg/kg, scopolamine 3 mg/kg
# Procedure: Sixty mice were randomly divided into six groups. […] After 30 min, memory impairment was induced by administering scopolamine (3 mg/kg).
# [5] = cited from earlier work
# PC12 cells = test: Neuroprotective effect on H2O2-induced PC12 cells injury, MTT assay; assay type: cell-based; details: compound 100 μM, 100 μM H2O2, PC12 cells
# Chain of huAChE (P22303 32-617 isoform P22303-2 limits assumed): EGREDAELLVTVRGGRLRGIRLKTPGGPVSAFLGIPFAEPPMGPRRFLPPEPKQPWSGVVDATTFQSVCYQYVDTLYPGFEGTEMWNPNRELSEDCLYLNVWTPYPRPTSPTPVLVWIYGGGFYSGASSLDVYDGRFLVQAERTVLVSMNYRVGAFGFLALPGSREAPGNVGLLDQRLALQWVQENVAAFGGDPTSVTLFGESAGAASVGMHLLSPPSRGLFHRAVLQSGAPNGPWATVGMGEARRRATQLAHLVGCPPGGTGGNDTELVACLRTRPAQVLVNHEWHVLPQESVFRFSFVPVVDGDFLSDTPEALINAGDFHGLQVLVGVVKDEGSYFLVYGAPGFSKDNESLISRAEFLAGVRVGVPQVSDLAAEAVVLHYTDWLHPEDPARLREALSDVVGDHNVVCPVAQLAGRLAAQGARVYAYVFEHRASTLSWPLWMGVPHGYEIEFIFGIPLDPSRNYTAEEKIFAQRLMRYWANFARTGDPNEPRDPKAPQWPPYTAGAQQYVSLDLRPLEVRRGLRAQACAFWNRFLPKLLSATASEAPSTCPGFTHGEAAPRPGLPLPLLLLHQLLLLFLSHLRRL
Compound,ORAC [1],IC50 (ratBuChE) [µM],SI (ratAChE),IC50 (ratAChE; read-out: IC50 ± SD ratAChE) [µM],further results
"CCN(CCCCOc1ccc(-c2cc(=O)c3c(O)cc(OCCCCN(CC)Cc4ccccc4)cc3o2)cc1)Cc1ccccc1 [Compound 10h, 7–(4-(benzyl(ethyl)amino)butoxy)-2–(4-(4-(benzyl(ethyl)amino)butoxy)phenyl)-5-hydroxy-4H-chromen-4-one]",1.1 ± 0.03 μM of Trolox equivalent/μM of tested compound,12.9 ± 0.51,14.0,0.92 ± 0.06,SI (huAChE): 23.1; IC50 (huAChE): 0.16 ± 0.01 µM; IC50 (huBuChE): 3.7 ± 0.06 µM
"CCN(CCCCCOc1ccc(-c2cc(=O)c3c(O)cc(OCCCCCN(CC)Cc4ccccc4)cc3o2)cc1)Cc1ccccc1 [Compound 10k, 7-((5-(benzyl(ethyl)amino)pentyl)oxy)-2–(4-((5-(benzyl(ethyl)amino)pentyl)oxy)phenyl)-5-hydroxy-4H-chromen-4-one]",1.1 ± 0.02 μM of Trolox equivalent/μM of tested compound,13.3 ± 0.27,16.4,0.81 ± 0.05,SI (huAChE): 34.6; IC50 (huAChE): 0.13 ± 0.01 µM; IC50 (huBuChE): 4.5 ± 0.12 µM
"CCN(CCCCCOc1ccc(-c2cc(=O)c3c(O)cc(OCCCCCN(CC)Cc4ccccc4OC)cc3o2)cc1)Cc1ccccc1OC [Compound 10l, 7-((5-(ethyl(2-methoxybenzyl)amino)pentyl)oxy)-2–(4-((5-(ethyl(2-methoxybenzyl)amino)pentyl)oxy)phenyl)-5-hydroxy-4H-chromen-4-one]",1.3 ± 0.03 μM of Trolox equivalent/μM of tested compound,14.4 ± 0.32,23.2,0.62 ± 0.05,SI (huAChE): 24.4; IC50 (huAChE): 0.09 ± 0.002 µM; IC50 (huBuChE): 2.2 ± 0.18 µM
"O=c1cc(-c2ccc(OCCCCCCN3CCC(CCCc4ccccc4)CC3)cc2)oc2cc(OCCCCCCN3CCC(CCCc4ccccc4)CC3)cc(O)c12 [Compound 10u, 5-hydroxy-7-((6–(4-(3-phenylpropyl)piperidin-1-yl)hexyl)oxy)-2–(4-((6–(4–(3-phenylpropyl)piperidin-1-yl)hexyl)oxy)phenyl)-4H-chromen-4-one]",1.2 ± 0.03 μM of Trolox equivalent/μM of tested compound,17.2 ± 0.45,2.7,6.3 ± 0.21,–
"CC1CC(C)CN(CCCCCCOc2ccc(-c3cc(=O)c4c(O)cc(OCCCCCCN5CC(C)CC(C)C5)cc4o3)cc2)C1 (stereo not drawn) [Compound 10v, 7-((6–(3,5-dimethylpiperidin-1-yl)hexyl)oxy)-2–(4-((6–(3,5-dimethylpiperidin-1-yl)hexyl)oxy)phenyl)-5-hydroxy-4H-chromen-4-one]",1.3 ± 0.03 μM of Trolox equivalent/μM of tested compound,14.8 ± 0.29,1.8,8.1 ± 0.49,–
"CCn1cc(C(=O)O)c(=O)c2cc(F)c(N3CCNCC3)cc21 [Norfloxacin, reference compound]",–,–,–,–,Papp at 100 μg/mL (in vitro): 1.3 ± 0.1 nm/s
"O=c1cc(-c2ccc(O)cc2)oc2cc(O)cc(O)c12 [apigenin, reference compound]",5.6 ± 0.52 μM of Trolox equivalent/μM of tested compound,> 50,–,–,IC50 (ratAChE; IC50 ± SD ratAChE): > 50 µM
"COc1cc(/C=C/C(=O)CC(=O)/C=C/c2ccc(O)c(OC)c2)ccc1O [curcumin, reference compound]",–,–,–,–,inhibition at 25 µM (Aβ1–42 [2]): 50.6 ± 0.33%; inhibition at 25 µM (Aβ1–42 [3]): 45.9 ± 0.67%
"COc1cc2c(cc1OC)C(=O)C(CC1CCN(Cc3ccccc3)CC1)C2 (stereo not drawn) [donepezil, reference compound]",–,–,–,–,step-down latency [4]: 219.4 s
"O=C1CC(c2ccc(O)cc2)Oc2cc(O)cc(O)c21 (stereo not drawn) [naringenin, 5,7-dihydroxy-2–(4-hydroxyphenyl)-2,3-dihydrochromen-4-one, reference compound]",5.2 ± 0.29 μM of Trolox equivalent/μM of tested compound,> 50,–,–,ORAC values [1]: 5.2 eq; oral bioavailability [5]: 15%; IC50 (ratAChE; IC50 ± SD ratAChE): > 50 µM
Vitamine E [reference compound],–,–,–,–,cell viability (PC12 cells): 67.6%
